Peptide text beside a SMILES is read from it.
Columns and labels:
[1] = test system: sMAC signalling (sestrin 1, 2 and 3 expression, AMPK and MAPK phosphorylation); assay: Immunoblot of sMAC signalling in CD4+ T cells treated with DOS compounds (heat-map); assay type: cell-based, human
Protocol: CD4+ T cells were isolated from PBMCs from healthy donors, treated with DOS compounds for 4 hours and harvested for immunoblot analysis. The heat-map of Sestrin 1, Sestrin 2, Sestrin 3, p-mTOR1, p-JNK, p-AMPK, p-ERK1/2, and p-p38, represents the mean of three to nine experiments. Histone 3 was used as a control.
• 1. CD4+ cells were separated from PBMC using appropriate microbeads kit (Miltenyi) • 2. Cells were resuspended in whole RPMI medium and plated in the 24-multiwell plate • 3. Then activated for 4 hrs with DOS compounds • 4. Cells were then harvested, washed with PBS and resuspended in lysis buffer (RIPA with […]) • 5. The cell-lysis mix was incubated for 20 mins on ice • 6. Samples were centrifuged for 20 mins at the max speed • 7. The supernatant was collected and Lemmli buffer+β-Mercaptoethanol was added • 8. Samples were then boiled for 5 mins at 95° C. • 9. Samples were loaded on the polyacrylamide gel and left to run in TRIS-Glycine-SDS running buffer • 10. Once the run was completed the proteins were transferred from the gel to the nitrocellulose membrane by using the Trans-Blot machine (Biorad) • 11. Membrane was washed with 0.1% Tween-TBS buffer and blocked in 5% non-fat milk for 1 hr • 12. Followed incubation with the primary antibody o.n. • 13. The day after, the membrane was washed with 0.1% Tween-TBS buffer for three times for at least 30 mins each • 14. Secondary antibody was then added for 1h • 15. The membrane was the washed with 0.1% Tween-TBS buffer for three times for at least 30 mins each • 16. The signal was developed using ECL solution
This was shown by downregulation of sestrin 1, 2 and 3 expression, and AMPK and MAPK phosphorylation.

T cells = assay: Seahorse assay for cell metabolism (OCR, FAO); assay type: cell-based, human; settings: T cells treated for 24h
Protocol: Senescent T cells and stem cells were analysed using FACS analysis. (B—C) Represented is the ratio to untreated sample. Each dot is an individual donor. (D) Oxygen Consumption Rate (OCR) of T cells treated with DOS46L for 24h were measured by Seahorse. […] (E) The FAO index was calculated by OCR difference between Ctrl and DOS46L treated T cells in the presence or in the absence of the FAO inhibitor etomoxir by Seahorse. Student's T-test was used to analyse the data. **p<0.01; ***p<0.001.
• 1. CD4+ cells were purified from PBMC using appropriate microbeads (Miltenyi) • 2. Purified CD4+ cells were activated with CD3/CD28 Dynabeads (Gibco) and treated over-night with DOS46L at 10 μM. • 3. Day after, the conventional growth media was removed from the cells and was added the “substrate-limited growth media” composed of basic DMEM plus 0.5 mM glucose, 1 mM glutamine and 1% FBS. • 4. Cells were then incubated with this media for 4 hrs in incubator. • 5. Cells were then counted and plated at the concentration of 2*10^5 cells/well in the XF96 well plate pre-treated with poly-lysine. • 6. Cells were then supplemented with the “assay media” composed of XF DMEM with 2 mM of glucose and 0.5 mM L-carnitine. • 7. […] Seahorse machine took reads of OCR values at different time points for the time span of 120 mins. […] Cells were left in incubator for 12 days and then they were analysed.

[2] = test system: PBMCs from elderly donors, heat-inactivated SARS-COV2; assay: COVID-specific antibodies in PBMCs from elderly donors (ELISA); assay type: cell-based, human; settings: PBMCs from elderly donors (75-95 years), 10 uM
[3] = test system: Breast cancer cell line (MCF-7); assay: Cancer cell death by FACS live-dead staining; assay type: cell-based; settings: 20 uM, 48 hours
Protocol: (§1) (Left) Immortalized paediatric neuroblastoma cell line (sh-sy5y) was treated at different concentrations of DOS46L and DOS144D (from 1 uM to 20 uM) for 48 hours, then analysed by FACS with live-dead staining. (Right) Breast cancer cell line (MCF-7) was treated at the fixed concentration of DOS46L and DOS144D (20 uM) for 48 hours, then analysed by FACS with live-dead dye staining. UN depicts untreated controls. Results of triplicate cultures are shown.

[4] = test system: paediatric neuroblastoma cell line (sh-sy5y); assay: Cancer cell death by FACS live-dead staining; assay type: cell-based; settings: 1 uM to 20 uM, 48 hours
Protocol: as §1

CC[C@H](C)[C@@H]1NC(=O)[C@H](Cc2ccccc2)NC(=O)[C@H](C)NC(=O)[C@H](C(C)C)NC(=O)[C@@H]2CCCN2C1=O [DOS46L] (cyclo(AFIPV))
effectiveness at sMAC inactivation among all of the DOS compounds tested [1]: most effective
sMAC pathway silenced [1]: 90%
sestrins inhibited (pan or selective inhibitor) ([1]; CD4+ T cells, 4 hours, FIG. 5 heat-map): inhibit all three sestrins
oxidative metabolism and Fatty Acid Oxidation (FAO) (T cells): Induction of Fatty Acid Oxidation (FAO)
COVID-specific IgG antibodies [2]: stimulation of COVID-specific antibodies
cancer cell death [3]: induction of cancer cell death
cancer cell death [4]: induction of cancer cell death

— patent publication US20250066423A1, “SESTRIN-MAPK COMPLEX INHIBITORS” (Sentcell Ltd, priority 2021, published 2025)
